From the kinase profiling compilation of Christmann-Franck et al. (2016)

Assays:
Test in all cases: radiometric filter-binding kinase assay
ABL1 (human) = ABL1 (human) (UniProt P00519)
TLK1 (human) = TLK1 (human) (UniProt Q9UKI8)
ZAP70 (human) = ZAP70 (human) (UniProt P43403)
PDGFRA (human) = PDGFRA (human) (UniProt P16234)
ULK1 (human) = ULK1 (human) (UniProt O75385)
PTK6 (human) = PTK6 (human) (UniProt Q13882)
AURKB (human) = AURKB (human) (UniProt Q96GD4)
TSSK1B (human) = TSSK1B (human) (UniProt Q9BXA7)
MAPK7 (human) = MAPK7 (human) (UniProt Q13164)
MAP4K3 (human) = MAP4K3 (human) (UniProt Q8IVH8)
TTBK1 (human) = TTBK1 (human) (UniProt Q5TCY1)
TESK1 (human) = TESK1 (human) (UniProt Q15569)
MAP4K5 (human) = MAP4K5 (human) (UniProt Q9Y4K4)
DDR2 (human) = DDR2 (human) (UniProt Q16832)
PHKG1 (human) = PHKG1 (human) (UniProt Q16816)
STK24 (human) = STK24 (human) (UniProt Q9Y6E0)
CSNK1G2 (human) = CSNK1G2 (human) (UniProt P78368)
SIK3 (human) = SIK3 (human) (UniProt Q9Y2K2)
EIF2AK3 (human) = EIF2AK3 (human) (UniProt Q9NZJ5)
TEK (human) = TEK (human) (UniProt Q02763)
PRKCG (human) = PRKCG (human) (UniProt P05129)
WNK1 (human) = WNK1 (human) (UniProt Q9H4A3)
Chain of WNK1 (human) (Q9H4A3 whole entry, looked up): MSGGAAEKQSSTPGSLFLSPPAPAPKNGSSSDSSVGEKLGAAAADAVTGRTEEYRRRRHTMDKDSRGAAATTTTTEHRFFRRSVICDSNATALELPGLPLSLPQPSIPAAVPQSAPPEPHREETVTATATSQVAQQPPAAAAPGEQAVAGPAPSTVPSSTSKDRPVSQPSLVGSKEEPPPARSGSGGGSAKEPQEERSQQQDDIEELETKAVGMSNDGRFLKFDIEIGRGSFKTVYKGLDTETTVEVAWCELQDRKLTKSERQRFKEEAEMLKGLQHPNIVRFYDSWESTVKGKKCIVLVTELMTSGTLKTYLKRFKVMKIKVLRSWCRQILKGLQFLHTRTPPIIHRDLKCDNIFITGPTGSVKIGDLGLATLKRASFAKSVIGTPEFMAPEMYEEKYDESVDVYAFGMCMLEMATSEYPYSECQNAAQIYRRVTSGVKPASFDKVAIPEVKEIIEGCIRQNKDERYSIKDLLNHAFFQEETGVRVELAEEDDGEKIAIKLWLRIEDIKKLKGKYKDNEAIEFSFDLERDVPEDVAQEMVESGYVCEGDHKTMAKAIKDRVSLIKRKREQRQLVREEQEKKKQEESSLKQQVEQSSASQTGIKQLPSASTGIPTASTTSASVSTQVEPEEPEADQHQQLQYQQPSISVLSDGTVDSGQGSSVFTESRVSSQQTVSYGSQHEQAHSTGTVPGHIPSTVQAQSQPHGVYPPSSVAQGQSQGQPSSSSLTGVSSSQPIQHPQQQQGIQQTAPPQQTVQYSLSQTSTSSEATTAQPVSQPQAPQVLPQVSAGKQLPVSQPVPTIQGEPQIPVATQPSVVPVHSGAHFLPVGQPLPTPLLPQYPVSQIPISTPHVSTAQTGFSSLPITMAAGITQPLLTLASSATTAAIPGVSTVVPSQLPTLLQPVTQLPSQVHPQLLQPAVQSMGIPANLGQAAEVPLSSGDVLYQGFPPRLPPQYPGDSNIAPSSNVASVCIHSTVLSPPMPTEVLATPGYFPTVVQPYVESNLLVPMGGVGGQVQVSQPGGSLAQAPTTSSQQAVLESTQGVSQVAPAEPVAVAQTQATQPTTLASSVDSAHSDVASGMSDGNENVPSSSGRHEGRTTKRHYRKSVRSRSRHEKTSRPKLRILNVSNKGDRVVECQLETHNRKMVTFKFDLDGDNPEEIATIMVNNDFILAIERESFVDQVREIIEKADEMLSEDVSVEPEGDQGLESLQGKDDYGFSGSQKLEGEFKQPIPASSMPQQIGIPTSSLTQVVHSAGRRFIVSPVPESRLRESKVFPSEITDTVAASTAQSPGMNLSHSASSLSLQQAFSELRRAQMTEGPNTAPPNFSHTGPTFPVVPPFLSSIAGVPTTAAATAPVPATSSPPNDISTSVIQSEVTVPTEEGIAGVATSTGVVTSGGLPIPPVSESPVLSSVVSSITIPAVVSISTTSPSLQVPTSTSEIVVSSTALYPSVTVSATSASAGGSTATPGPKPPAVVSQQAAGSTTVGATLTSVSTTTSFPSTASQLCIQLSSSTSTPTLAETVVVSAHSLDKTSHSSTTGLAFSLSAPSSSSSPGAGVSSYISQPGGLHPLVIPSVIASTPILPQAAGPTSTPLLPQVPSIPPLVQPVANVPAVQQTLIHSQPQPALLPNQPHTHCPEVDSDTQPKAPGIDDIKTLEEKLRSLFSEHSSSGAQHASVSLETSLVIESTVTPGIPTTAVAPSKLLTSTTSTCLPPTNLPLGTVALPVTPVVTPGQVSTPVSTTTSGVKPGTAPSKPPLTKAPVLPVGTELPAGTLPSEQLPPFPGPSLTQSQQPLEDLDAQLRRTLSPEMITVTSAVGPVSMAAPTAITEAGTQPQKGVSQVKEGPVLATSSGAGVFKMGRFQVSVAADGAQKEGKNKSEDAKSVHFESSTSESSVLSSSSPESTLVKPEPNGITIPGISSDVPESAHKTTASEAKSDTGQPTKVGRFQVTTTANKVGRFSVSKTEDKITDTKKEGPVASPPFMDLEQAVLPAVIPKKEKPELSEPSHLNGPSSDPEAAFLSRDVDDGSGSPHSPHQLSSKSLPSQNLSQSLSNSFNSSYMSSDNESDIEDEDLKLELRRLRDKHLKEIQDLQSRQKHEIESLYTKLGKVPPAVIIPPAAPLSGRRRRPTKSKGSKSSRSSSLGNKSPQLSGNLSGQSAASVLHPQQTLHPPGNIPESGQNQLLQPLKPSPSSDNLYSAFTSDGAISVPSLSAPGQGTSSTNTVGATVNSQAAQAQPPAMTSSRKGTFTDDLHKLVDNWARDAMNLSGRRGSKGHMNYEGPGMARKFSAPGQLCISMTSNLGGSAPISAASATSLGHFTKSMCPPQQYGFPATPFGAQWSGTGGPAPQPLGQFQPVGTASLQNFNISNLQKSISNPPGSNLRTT

[1] = tested on: OXSR1 (human), O95747 [T185E]; details: compound 1.0 µM
SIK2 (human) = SIK2 (human) (UniProt Q9H0K1)
[2] = tested on: TGFBR1 (human), P36897 [T204D]
STK33 (human) = STK33 (human) (UniProt Q9BYT3)
CDK9 CCNT1 (human) = CDK9 CCNT1 (human) (UniProt P50750+O60563)
[3] = molecular target: PRKAA1 PRKAB2 PRKAG1 (human) (UniProt O43741+Q13131+P54619)
IRAK1 (human) = IRAK1 (human) (UniProt P51617)
TTBK2 (human) = TTBK2 (human) (UniProt Q6IQ55)
ULK2 (human) = ULK2 (human) (UniProt Q8IYT8)
STK16 (human) = STK16 (human) (UniProt O75716)

Chain of ZAP70 (human) (P43403 whole entry, looked up): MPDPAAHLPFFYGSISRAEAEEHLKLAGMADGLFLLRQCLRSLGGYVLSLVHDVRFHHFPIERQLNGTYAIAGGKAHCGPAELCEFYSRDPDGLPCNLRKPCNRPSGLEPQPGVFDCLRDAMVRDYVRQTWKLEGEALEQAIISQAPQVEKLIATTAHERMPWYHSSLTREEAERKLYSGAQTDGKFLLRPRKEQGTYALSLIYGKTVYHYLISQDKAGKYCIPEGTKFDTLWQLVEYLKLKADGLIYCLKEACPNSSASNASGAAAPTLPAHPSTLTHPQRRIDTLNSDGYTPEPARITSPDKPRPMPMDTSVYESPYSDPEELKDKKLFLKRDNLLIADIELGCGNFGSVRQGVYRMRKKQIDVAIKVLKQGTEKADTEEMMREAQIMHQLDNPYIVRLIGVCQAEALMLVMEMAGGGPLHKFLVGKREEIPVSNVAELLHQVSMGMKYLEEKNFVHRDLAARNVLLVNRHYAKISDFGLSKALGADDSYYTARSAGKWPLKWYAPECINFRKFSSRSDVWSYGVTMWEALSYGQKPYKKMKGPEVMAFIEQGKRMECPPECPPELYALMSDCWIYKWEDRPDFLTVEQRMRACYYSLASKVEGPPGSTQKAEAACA
Chain of PDGFRA (human) (P16234 whole entry, looked up): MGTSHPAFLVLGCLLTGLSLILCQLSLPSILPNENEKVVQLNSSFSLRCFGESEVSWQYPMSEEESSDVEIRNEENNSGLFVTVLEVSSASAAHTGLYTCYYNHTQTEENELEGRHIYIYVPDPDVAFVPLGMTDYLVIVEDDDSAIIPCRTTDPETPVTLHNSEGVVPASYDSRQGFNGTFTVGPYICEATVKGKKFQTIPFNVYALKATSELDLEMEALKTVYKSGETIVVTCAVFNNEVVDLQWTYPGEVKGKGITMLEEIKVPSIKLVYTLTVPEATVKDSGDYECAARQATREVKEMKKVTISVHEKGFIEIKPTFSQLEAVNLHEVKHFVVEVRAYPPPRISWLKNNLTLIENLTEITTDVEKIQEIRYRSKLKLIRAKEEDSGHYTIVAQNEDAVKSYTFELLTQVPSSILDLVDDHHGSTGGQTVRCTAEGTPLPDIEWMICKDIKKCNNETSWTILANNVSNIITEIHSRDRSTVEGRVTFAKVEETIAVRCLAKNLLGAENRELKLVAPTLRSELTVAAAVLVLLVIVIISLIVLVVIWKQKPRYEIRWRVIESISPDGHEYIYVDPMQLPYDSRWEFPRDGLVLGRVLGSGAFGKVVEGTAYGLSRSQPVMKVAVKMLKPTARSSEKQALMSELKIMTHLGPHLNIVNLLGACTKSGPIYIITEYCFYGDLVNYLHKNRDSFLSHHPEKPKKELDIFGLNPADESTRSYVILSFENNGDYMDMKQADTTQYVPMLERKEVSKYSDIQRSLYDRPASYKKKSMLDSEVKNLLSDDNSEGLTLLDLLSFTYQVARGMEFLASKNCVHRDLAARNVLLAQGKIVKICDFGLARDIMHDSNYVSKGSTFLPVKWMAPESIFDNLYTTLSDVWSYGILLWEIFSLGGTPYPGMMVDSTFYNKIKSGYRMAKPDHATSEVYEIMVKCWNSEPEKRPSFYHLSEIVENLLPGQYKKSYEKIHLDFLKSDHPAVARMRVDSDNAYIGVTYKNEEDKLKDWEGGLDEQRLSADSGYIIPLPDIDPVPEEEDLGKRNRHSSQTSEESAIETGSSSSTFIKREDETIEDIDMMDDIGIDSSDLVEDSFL
Chain of AURKB (human) (Q96GD4 whole entry, looked up): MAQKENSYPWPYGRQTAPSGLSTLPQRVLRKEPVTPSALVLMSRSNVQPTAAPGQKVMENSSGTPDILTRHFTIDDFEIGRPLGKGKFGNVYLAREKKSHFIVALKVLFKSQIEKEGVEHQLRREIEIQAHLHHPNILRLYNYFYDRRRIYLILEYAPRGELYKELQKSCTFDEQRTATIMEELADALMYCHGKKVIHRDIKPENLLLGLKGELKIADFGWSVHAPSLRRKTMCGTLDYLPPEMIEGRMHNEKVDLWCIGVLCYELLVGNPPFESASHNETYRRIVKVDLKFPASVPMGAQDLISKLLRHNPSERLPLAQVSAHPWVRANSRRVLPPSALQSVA

NCC(=O)Nc1ccc(-n2nc(C(F)(F)F)cc2-c2ccc3c(ccc4ccccc43)c2)cc1
residual activity (ABL1 (human); compound 1.0 µM): 95% | residual activity (ABL1 (human); compound 10.0 µM): 103% | residual activity (TLK1 (human); compound 1.0 µM): 89% | residual activity (TLK1 (human); compound 10.0 µM): 104% | residual activity (ZAP70 (human); compound 1.0 µM): 84% | residual activity (ZAP70 (human); compound 10.0 µM): 83% | residual activity (PDGFRA (human); compound 1.0 µM): 82% | residual activity (PDGFRA (human); compound 10.0 µM): 98% | residual activity (ULK1 (human); compound 1.0 µM): 86% | residual activity (ULK1 (human); compound 10.0 µM): 97% | residual activity (PTK6 (human); compound 1.0 µM): 91% | residual activity (PTK6 (human); compound 10.0 µM): 91% | residual activity (AURKB (human); compound 1.0 µM): 93% | residual activity (AURKB (human); compound 10.0 µM): 88% | residual activity (TSSK1B (human); compound 10.0 µM): 83% | residual activity (MAPK7 (human); compound 1.0 µM): 91% | residual activity (MAPK7 (human); compound 10.0 µM): 89% | residual activity (MAP4K3 (human); compound 1.0 µM): 84% | residual activity (MAP4K3 (human); compound 10.0 µM): 73% | residual activity (TTBK1 (human); compound 1.0 µM): 88% | residual activity (TESK1 (human); compound 1.0 µM): 84% | residual activity (TESK1 (human); compound 10.0 µM): 103% | residual activity (MAP4K5 (human); compound 1.0 µM): 80% | residual activity (MAP4K5 (human); compound 10.0 µM): 73% | residual activity (DDR2 (human); compound 1.0 µM): 92% | residual activity (DDR2 (human); compound 10.0 µM): 101% | residual activity (PHKG1 (human); compound 1.0 µM): 79% | residual activity (PHKG1 (human); compound 10.0 µM): 72% | residual activity (STK24 (human); compound 1.0 µM): 84% | residual activity (STK24 (human); compound 10.0 µM): 70% | residual activity (CSNK1G2 (human); compound 1.0 µM): 93% | residual activity (CSNK1G2 (human); compound 10.0 µM): 90% | residual activity (SIK3 (human); compound 1.0 µM): 91% | residual activity (SIK3 (human); compound 10.0 µM): 101% | residual activity (EIF2AK3 (human); compound 1.0 µM): 102% | residual activity (TEK (human); compound 1.0 µM): 103% | residual activity (PRKCG (human); compound 1.0 µM): 95% | residual activity (PRKCG (human); compound 10.0 µM): 97% | residual activity (WNK1 (human); compound 10.0 µM): 105% | residual activity [1]: 95% | residual activity (SIK2 (human); compound 1.0 µM): 95% | residual activity (SIK2 (human); compound 10.0 µM): 79% | residual activity ([2]; compound 1.0 µM): 98% | residual activity ([2]; compound 10.0 µM): 98% | residual activity (STK33 (human); compound 1.0 µM): 91% | residual activity (STK33 (human); compound 10.0 µM): 92% | residual activity (CDK9 CCNT1 (human); compound 1.0 µM): 82% | residual activity (CDK9 CCNT1 (human); compound 10.0 µM): 83% | residual activity ([3]; compound 1.0 µM): 88% | residual activity ([3]; compound 10.0 µM): 94% | residual activity (IRAK1 (human); compound 10.0 µM): 80% | residual activity (TTBK2 (human); compound 1.0 µM): 96% | residual activity (TTBK2 (human); compound 10.0 µM): 154%

C=C1C(=O)OC2C1CC/C(C)=C/CCC1(C)OC21 (stereo unspecified)
residual activity (ABL1 (human); compound 1.0 µM): 119% | residual activity (ABL1 (human); compound 5.0 µM): 110% | residual activity (TLK1 (human); compound 1.0 µM): 108% | residual activity (TLK1 (human); compound 5.0 µM): 115% | residual activity (ZAP70 (human); compound 1.0 µM): 99% | residual activity (ZAP70 (human); compound 5.0 µM): 104% | residual activity (PDGFRA (human); compound 5.0 µM): 109% | residual activity (ULK1 (human); compound 1.0 µM): 104% | residual activity (ULK1 (human); compound 5.0 µM): 110% | residual activity (ULK2 (human); compound 1.0 µM): 96% | residual activity (ULK2 (human); compound 5.0 µM): 121% | residual activity (PTK6 (human); compound 1.0 µM): 107% | residual activity (PTK6 (human); compound 5.0 µM): 120% | residual activity (AURKB (human); compound 1.0 µM): 106% | residual activity (AURKB (human); compound 5.0 µM): 99% | residual activity (TSSK1B (human); compound 1.0 µM): 103% | residual activity (TSSK1B (human); compound 5.0 µM): 93% | residual activity (MAP4K3 (human); compound 1.0 µM): 95% | residual activity (MAP4K3 (human); compound 5.0 µM): 88% | residual activity (STK16 (human); compound 1.0 µM): 121% | residual activity (STK16 (human); compound 5.0 µM): 106% | residual activity (TTBK1 (human); compound 1.0 µM): 110% | residual activity (TTBK1 (human); compound 5.0 µM): 103% | residual activity (TESK1 (human); compound 1.0 µM): 106% | residual activity (TESK1 (human); compound 5.0 µM): 112% | residual activity (MAP4K5 (human); compound 1.0 µM): 116% | residual activity (MAP4K5 (human); compound 5.0 µM): 97% | residual activity (DDR2 (human); compound 1.0 µM): 105% | residual activity (DDR2 (human); compound 5.0 µM): 107% | residual activity (PHKG1 (human); compound 1.0 µM): 116% | residual activity (PHKG1 (human); compound 5.0 µM): 108% | residual activity (STK24 (human); compound 1.0 µM): 101% | residual activity (STK24 (human); compound 5.0 µM): 88% | residual activity (CSNK1G2 (human); compound 1.0 µM): 124% | residual activity (CSNK1G2 (human); compound 5.0 µM): 101% | residual activity (SIK3 (human); compound 1.0 µM): 110% | residual activity (SIK3 (human); compound 5.0 µM): 104% | residual activity (EIF2AK3 (human); compound 1.0 µM): 111% | residual activity (EIF2AK3 (human); compound 5.0 µM): 123% | residual activity (TEK (human); compound 1.0 µM): 99% | residual activity (TEK (human); compound 5.0 µM): 80% | residual activity (PRKCG (human); compound 1.0 µM): 120% | residual activity (PRKCG (human); compound 5.0 µM): 121% | residual activity (WNK1 (human); compound 1.0 µM): 112% | residual activity (WNK1 (human); compound 5.0 µM): 100% | residual activity [1]: 115% | residual activity (SIK2 (human); compound 1.0 µM): 108% | residual activity (SIK2 (human); compound 5.0 µM): 93% | residual activity (STK33 (human); compound 1.0 µM): 117% | residual activity (STK33 (human); compound 5.0 µM): 102% | residual activity (CDK9 CCNT1 (human); compound 1.0 µM): 119% | residual activity (CDK9 CCNT1 (human); compound 5.0 µM): 101% | residual activity ([3]; compound 1.0 µM): 111% | residual activity ([3]; compound 5.0 µM): 107% | residual activity (IRAK1 (human); compound 1.0 µM): 96% | residual activity (IRAK1 (human); compound 5.0 µM): 102% | residual activity (TTBK2 (human); compound 1.0 µM): 125% | residual activity (TTBK2 (human); compound 5.0 µM): 100%
